Viability data for seven compounds are collected here from PubChem BioAssay AID588370 (NMMLSC, 2011).

In general, viability refers to a per cent measure of how many cells are alive, often set against a control.

Active and inactive are the calls of the source.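 Rule for the calls: active = cytotoxic compounds, leaving cell viability under 88%; inactive = viability at or above 88%.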

The test system of this test is U937 viability, trypan blue exclusion, 24 h. Description: cytotoxicity in U937 cells, cytotoxicity control for VLA-4 allosteric modulator project, cell-based, trypan blue (AID 588370). The note with it: at 10 µM; stronger effect = lower value.

As for `COc1cccc(-c2sc3ccccc3c2-c2ccc(OCCN3CCCC3)cc2)c1`, the viability was 84%.
As to `CN(C)CCOc1ccc(-c2c(-c3ccccc3)sc3ccccc23)cc1`, the viability is 97% (inactive).
`COc1cccc(-c2sc3ccccc3c2-c2ccc(OCCN(C)C)cc2)c1`: the viability was 97% (inactive).
As to `c1ccc(-c2sc3ccccc3c2-c2ccc(OCCN3CCCC3)cc2)cc1`, the viability was 97% (inactive).
With `c1ccc2c(-c3ccc(OCCN4CCCCC4)cc3)c(-c3ccsc3)sc2c1`, the viability is 96% (inactive).
The result for `COc1ccc(-c2sc3ccccc3c2-c2ccc(OCCN(C)C)cc2)cc1` reads 96% (inactive); that for `c1ccc2c(-c3ccc(OCCN4CCCC4)cc3)c(-c3ccsc3)sc2c1`, 93% (inactive).
